Measured values as given in ChEMBL document CHEMBL5550178, “Synthesis and anticancer properties of novel dolastatin 10 analogs featuring five-membered heterocyclic rings with a linkable group at the C-terminus” (Bioorg Med Chem, 2024).
The source made the active and inactive calls. The calls are words filed in the database; no cut-off is given here.

Key:
PANC-1 = assay: Cytotoxicity against human PANC-1 cells assessed as inhibition of cell growth measured after 8 days by XTT cell viability assay; assay type: functional, cell-based; conditions: PANC-1, 192 h
NCI-H1299 = assay: Cytotoxicity against human NCI-H1299 cells assessed as inhibition of cell growth measured after 8 days by XTT cell viability assay; assay type: functional, cell-based; conditions: NCI-H1299, 192 h
[1] = Cytotoxicity against human Fibroblast cells assessed as inhibition of cell growth measured after 8 days by XTT cell viability assay; assay type: toxicity, cell-based
MDA-MB-231 = assay: Cytotoxicity against human MDA-MB-231 cells assessed as inhibition of cell growth measured after 8 days by XTT cell viability assay; assay type: functional, cell-based; conditions: MDA-MB-231, 192 h
PC-3 [2] = assay: Cytotoxicity against human PC-3 cells assessed as inhibition of cell growth measured after 8 days by XTT cell viability assay; assay type: functional, cell-based; conditions: PC-3, 192 h
PC-3 [3] = assay: Induction of cell cycle arrest in human PC-3 cells assessed as accumulation of cells at G2/M phase at 50 nM measured after 4 days by PI staining based flow cytometry analysis (reference value: 11.9%); assay type: functional; conditions: time 4 day
PC-3 [4] = assay: Induction of cell cycle arrest in human PC-3 cells assessed as accumulation of cells at G2/M phase at 1 nM measured after 8 days by PI staining based flow cytometry analysis (reference value: 12.4%); assay type: functional; conditions: time 8 day
PC-3 [5] = assay: Induction of cell cycle arrest in human PC-3 cells assessed as accumulation of cells at G1/G0 phase at 50 nM measured after 6 days by PI staining based flow cytometry analysis (reference value: 70.7%); assay type: functional; conditions: time 6 day
PC-3 [6] = assay: Induction of cell cycle arrest in human PC-3 cells assessed as accumulation of cells at S phase at 50 nM measured after 8 days by PI staining based flow cytometry analysis (reference value: 23.9%); assay type: functional; conditions: time 8 day
PC-3 [7] = assay: Induction of cell cycle arrest in human PC-3 cells assessed as accumulation of cells at G1/G0 phase at 50 nM measured after 4 days by PI staining based flow cytometry analysis (reference value: 78.3%); assay type: functional; conditions: time 4 day
PC-3 [8] = assay: Induction of cell cycle arrest in human PC-3 cells assessed as accumulation of cells at S phase at 1000 nM measured after 8 days by PI staining based flow cytometry analysis (reference value: 23.9%); assay type: functional; conditions: time 8 day
PC-3 [9] = assay: Induction of cell cycle arrest in human PC-3 cells assessed as accumulation of cells at G2/M phase at 1000 nM measured after 8 days by PI staining based flow cytometry analysis (reference value: 12.4%); assay type: functional; conditions: time 8 day
PC-3 [10] = assay: Induction of cell cycle arrest in human PC-3 cells assessed as accumulation of cells at S phase at 50 nM measured after 6 days by PI staining based flow cytometry analysis (reference value: 14.4%); assay type: functional; conditions: time 6 day
PC-3 [11] = assay: Induction of cell cycle arrest in human PC-3 cells assessed as accumulation of cells at G2/M phase at 1000 nM measured after 6 days by PI staining based flow cytometry analysis (reference value: 15.8%); assay type: functional; conditions: time 6 day
PC-3 [12] = assay: Induction of cell cycle arrest in human PC-3 cells assessed as accumulation of cells at G1/G0 phase at 1 nM measured after 6 days by PI staining based flow cytometry analysis (reference value: 70.7%); assay type: functional; conditions: time 6 day
PC-3 [13] = assay: Induction of cell cycle arrest in human PC-3 cells assessed as accumulation of cells at G2/M phase at 1 nM measured after 6 days by PI staining based flow cytometry analysis (reference value: 15.8%); assay type: functional; conditions: time 6 day
PC-3 [14] = assay: Induction of cell cycle arrest in human PC-3 cells assessed as accumulation of cells at G1/G0 phase at 1000 nM measured after 6 days by PI staining based flow cytometry analysis (reference value: 70.7%); assay type: functional; conditions: time 6 day
PC-3 [15] = assay: Upregulation of BAX expression in human PC-3 cells at 1 to 50 nM measured after 8 days by Western blot analysis; assay type: functional, cell-based; conditions: dose 1-50 nM, time 8.0 day
PC-3 [16] = assay: Induction of cell cycle arrest in human PC-3 cells assessed as accumulation of cells at G1/G0 phase at 1000 nM measured after 4 days by PI staining based flow cytometry analysis (reference value: 78.3%); assay type: functional; conditions: time 4 day
PC-3 [17] = assay: Induction of cell cycle arrest in human PC-3 cells assessed as accumulation of cells at S phase at 1 nM measured after 6 days by PI staining based flow cytometry analysis (reference value: 14.4%); assay type: functional; conditions: time 6 day
PC-3 [18] = assay: Induction of cell cycle arrest in human PC-3 cells assessed as accumulation of cells at G1/G0 phase at 1 nM measured after 4 days by PI staining based flow cytometry analysis (reference value: 78.3%); assay type: functional; conditions: time 4 day
PC-3 [19] = assay: Induction of cell cycle arrest in human PC-3 cells assessed as accumulation of cells at S phase at 1 nM measured after 8 days by PI staining based flow cytometry analysis (reference value: 23.9%); assay type: functional; conditions: time 8 day
PC-3 [20] = assay: Induction of cell cycle arrest in human PC-3 cells assessed as accumulation of cells at G2/M phase at 50 nM measured after 8 days by PI staining based flow cytometry analysis (reference value: 12.4%); assay type: functional; conditions: time 8 day
PC-3 [21] = assay: Induction of cell cycle arrest in human PC-3 cells assessed as accumulation of cells at G1/G0 phase at 1 nM measured after 8 days by PI staining based flow cytometry analysis (reference value: 64.6%); assay type: functional; conditions: time 8 day
PC-3 [22] = assay: Induction of cell cycle arrest in human PC-3 cells assessed as accumulation of cells at S phase at 1000 nM measured after 4 days by PI staining based flow cytometry analysis (reference value: 9.87%); assay type: functional; conditions: time 4 day
PC-3 [23] = assay: Upregulation of caspase-3 expression in human PC-3 cells at 1 to 50 nM measured after 4 to 8 days by Western blot analysis; assay type: functional, cell-based; conditions: dose 1-50 nM, time 4-8 day
PC-3 [24] = assay: Induction of cell cycle arrest in human PC-3 cells assessed as accumulation of cells at S phase at 1 nM measured after 4 days by PI staining based flow cytometry analysis (reference value: 9.87%); assay type: functional; conditions: time 4 day
PC-3 [25] = assay: Induction of cell cycle arrest in human PC-3 cells assessed as accumulation of cells at G2/M phase at 1000 nM measured after 4 days by PI staining based flow cytometry analysis (reference value: 11.9%); assay type: functional; conditions: time 4 day
PC-3 [26] = assay: Induction of cell cycle arrest in human PC-3 cells assessed as accumulation of cells at S phase at 1000 nM measured after 6 days by PI staining based flow cytometry analysis (reference value: 14.4%); assay type: functional; conditions: time 6 day
PC-3 [27] = assay: Induction of cell cycle arrest in human PC-3 cells assessed as accumulation of cells at G2/M phase at 1 nM measured after 4 days by PI staining based flow cytometry analysis (reference value: 11.9%); assay type: functional; conditions: time 4 day
PC-3 [28] = assay: Induction of cell cycle arrest in human PC-3 cells assessed as accumulation of cells at G1/G0 phase at 1000 nM measured after 8 days by PI staining based flow cytometry analysis (reference value: 64.6%); assay type: functional; conditions: time 8 day
PC-3 [29] = assay: Induction of cell cycle arrest in human PC-3 cells assessed as accumulation of cells at G1/G0 phase at 50 nM measured after 8 days by PI staining based flow cytometry analysis (reference value: 64.6%); assay type: functional; conditions: time 8 day
PC-3 [30] = assay: Induction of cell cycle arrest in human PC-3 cells assessed as accumulation of cells at S phase at 50 nM measured after 4 days by PI staining based flow cytometry analysis (reference value: 9.87%); assay type: functional; conditions: time 4 day
PC-3 [31] = assay: Upregulation of CYP1A1 expression in human PC-3 cells at 1 to 50 nM measured after 4 to 8 days by Western blot analysis; assay type: functional, cell-based; conditions: dose 1-50 nM, time 4-8 day
PC-3 [32] = assay: Induction of cell cycle arrest in human PC-3 cells assessed as accumulation of cells at G2/M phase at 50 nM measured after 6 days by PI staining based flow cytometry analysis (reference value: 15.8%); assay type: functional; conditions: time 6 day
PC-3 [33] = assay: Upregulation of BAX expression in human PC-3 cells at 1 to 50 nM measured after 6 days by Western blot analysis; assay type: functional, cell-based; conditions: dose 1-50 nM, time 6.0 day

## CC[C@H](C)[C@@H]([C@@H](CC(=O)N1CCC[C@H]1[C@H](OC)[C@@H](C)C(=O)N[C@@H](Cc1ccccc1)Cn1cc(CN)nn1)OC)N(C)C(=O)[C@@H](NC(=O)[C@H](C(C)C)N(C)C)C(C)C
PANC-1
  IC50: 10.4 nM
NCI-H1299
  IC50: 18.7 nM
[1]
  IC50 at 8 days: 73.7 nM
MDA-MB-231
  IC50: 94.6 nM
PC-3 [2]
  IC50: 15.5 nM

## CC[C@H](C)[C@@H]([C@@H](CC(=O)N1CCC[C@H]1[C@H](OC)[C@@H](C)C(=O)N[C@@H](Cc1ccccc1)Cn1cc(CO)nn1)OC)N(C)C(=O)[C@@H](NC(=O)[C@H](C(C)C)N(C)C)C(C)C
PANC-1
  IC50: 4.7 nM
NCI-H1299
  IC50: 7.8 nM
[1]
  IC50 at 8 days: 51.5 nM
MDA-MB-231
  IC50: 63.4 nM
PC-3 [2]
  IC50: 10.9 nM

## CC[C@H](C)[C@@H]([C@@H](CC(=O)N1CCC[C@H]1[C@H](OC)[C@@H](C)C(=O)N[C@@H](Cc1ccccc1)Cn1cc(C(=O)O)nn1)OC)N(C)C(=O)[C@@H](NC(=O)[C@H](C(C)C)N(C)C)C(C)C
PANC-1
  IC50: 52 nM
NCI-H1299
  IC50: 137 nM
[1]
  IC50 at 8 days: 39.2 nM
MDA-MB-231
  IC50: 93.9 nM
PC-3 [2]
  IC50: 15.7 nM

## CC[C@H](C)[C@@H]([C@@H](CC(=O)N1CCC[C@H]1[C@H](OC)[C@@H](C)C(=O)N[C@@H](Cc1ccccc1)Cn1cc(CNC)nn1)OC)N(C)C(=O)[C@@H](NC(=O)[C@H](C(C)C)N(C)C)C(C)C
PANC-1
  IC50: 1.3 nM
NCI-H1299
  IC50: 4.7 nM
[1]
  IC50 at 8 days: 38.4 nM
MDA-MB-231
  IC50: 19.8 nM
PC-3 [2]
  IC50: 8.9 nM

## CC[C@H](C)[C@@H]([C@@H](CC(=O)N1CCC[C@H]1[C@H](OC)[C@@H](C)C(=O)N[C@@H](Cc1ccccc1)c1nc(CN)cs1)OC)N(C)C(=O)[C@@H](NC(=O)[C@H](C(C)C)N(C)C)C(C)C
PC-3 [3]
  Activity: 12%
PC-3 [4]
  Activity: 9.28%
PANC-1
  IC50: 0.2 nM
NCI-H1299
  IC50: 3.1 nM
PC-3 [5]
  Activity: 59.6%
PC-3 [6]
  Activity: 34.1%
PC-3 [7]
  Activity: 69.8%
PC-3 [8]
  Activity: 40.9%
[1]
  IC50 at 8 days: 38.5 nM
PC-3 [9]
  Activity: 22.9%
PC-3 [10]
  Activity: 26.4%
PC-3 [11]
  Activity: 12.8%
MDA-MB-231
  IC50: 36.2 nM
PC-3 [12]
  Activity: 35.5%
PC-3 [13]
  Activity: 36.5%
PC-3 [14]
  Activity: 59.2%
PC-3 [15]
  Activity: inactive
PC-3 [16]
  Activity: 64.5%
PC-3 [17]
  Activity: 29.5%
PC-3 [18]
  Activity: 77.1%
PC-3 [19]
  Activity: 26.1%
PC-3 [20]
  Activity: 24%
PC-3 [21]
  Activity: 65.9%
PC-3 [22]
  Activity: 17.8%
PC-3 [23]
  Activity: Active
PC-3 [24]
  Activity: 14.5%
PC-3 [25]
  Activity: 18.5%
PC-3 [26]
  Activity: 29.3%
PC-3 [27]
  Activity: 9.06%
PC-3 [28]
  Activity: 38.1%
PC-3 [29]
  Activity: 43.3%
PC-3 [2]
  IC50: 0.9 nM
PC-3 [30]
  Activity: 19.1%
PC-3 [31]
  Activity: Active
PC-3 [32]
  Activity: 15.3%
PC-3 [33]
  Activity: Active
